We go through twelve compounds from ChEMBL document CHEMBL3044735, “Search of antimycobacterial activities in hybrid molecules with benzopyran skeleton” (2011).

For assay [1], the system named is Mycobacterium tuberculosis. The assay can be described thus: Antimycobacterial activity against Mycobacterium tuberculosis H37Ra after 5 days by two-fold dilution method. The conditions noted are these: 120 h. The format is functional.
Assay [2] relates to Mycobacterium tuberculosis. Nature of the assay: Antimycobacterial activity against Mycobacterium tuberculosis H37Rv after 30 days by agar microdilution method. The format is functional.

Values after ≈ are worked out from the molar mass of the structure shown.

Take `CC1(C)CCc2cc(C(C#Cc3ccccc3)N3CCOCC3)ccc2O1` (stereo unspecified): the values for the MIC in assay [1] and in assay [2] were over 12.5 µg/mL and 12.5 µg/mL (≈ 34.6 µM), respectively.

As to `CC1(C)CCc2cc(C(C#Cc3ccccc3)N3CCCCC3)ccc2O1` (stereo unspecified), the MIC was over 12.5 µg/mL in assay [1] and 6.25 µg/mL (≈ 17.4 µM) in assay [2]. On to `CCCCCCC#CC(c1ccc2c(c1)CCC(C)(C)O2)N1CCCCC1` (stereo unspecified), for which the MIC in assay [1] was over 12.5 µg/mL; in assay [2], 1.56 µg/mL (≈ 4.24 µM). As to `CCCCCC#CC(c1ccc2c(c1)CCC(C)(C)O2)N1CCOCC1` (stereo unspecified), the figures for the MIC in assay [1] and in assay [2] were over 12.5 µg/mL and 3.12 µg/mL (≈ 8.78 µM), respectively. Turning to `CCCCCCC#CC(c1ccc2c(c1)CCC(C)(C)O2)N1CCOCC1` (stereo unspecified), the MIC in assay [1] is over 12.5 µg/mL.

For the compound `CCOC(=O)[C@H]1N[C@@H](c2ccc(OC)cc2)[C@@H]([N+](=O)[O-])[C@@H]1c1ccc2c(c1)CCC(C)(C)O2` (relative stereo), the MIC in assay [1] and in assay [2] was over 12.5 µg/mL each time.

Turning to `CCOC(=O)[C@H]1N[C@@H](c2ccccc2)[C@@H]([N+](=O)[O-])[C@@H]1c1ccc2c(c1)CCC(C)(C)O2` (relative stereo), the values for the MIC in assay [1] and in assay [2] were over 12.5 µg/mL and 12.5 µg/mL (≈ 29.4 µM), respectively. As for `CCOC(=O)[C@H]1N[C@@H](c2cccc([N+](=O)[O-])c2)[C@@H]([N+](=O)[O-])[C@@H]1c1ccc2c(c1)CCC(C)(C)O2` (relative stereo), the MIC was over 12.5 µg/mL in assay [1] and 12.5 µg/mL (≈ 26.6 µM) in assay [2]. Regarding `CCOC(=O)[C@H]1N[C@@H](c2ccc(OC)cc2)[C@@]2([N+](=O)[O-])C(c3ccc(OC)cc3)Oc3ccccc3[C@@H]12` (relative stereo), the MIC in assay [1] and in assay [2] was over 12.5 µg/mL each time. For the compound `CCOC(=O)[C@H]1N[C@@H](c2ccc([N+](=O)[O-])cc2)[C@@]2([N+](=O)[O-])C(c3ccc(OC)cc3)Oc3ccccc3[C@@H]12` (relative stereo), the MIC was over 12.5 µg/mL in assay [1] and 12.5 µg/mL (≈ 24.1 µM) in assay [2]. For `CC[C@@H](CO)NCCN[C@@H](CC)CO` [ETHAMBUTOL], in assay [2], the MIC worked out at 3.25 µg/mL (≈ 15.9 µM). For `NNC(=O)c1ccncc1` [ISONIAZID], the MIC in assay [2] was found to be 0.75 µg/mL (≈ 5.47 µM).

Usually MIC stands for the least concentration at which growth counts as inhibited. The low end stands for greater potency, the high end for weaker potency.
